Assay results taken from patent publication US20210024542A1 (Torcept Therapeutics, Inc., priority 2018, published 2021).

How the values were obtained:
SW684 = assay: OncoPanel cell proliferation assay, SW684; format: cell-based, human
Procedure: (§1) Cells were seeded into 384-well plates and incubated in a humidified atmosphere of 5% CO2 at 37° C. Compounds were added the day following cell seeding. At the same time, a time zero untreated cell plate was generated. After a 3-day incubation period, cells were fixed and stained to allow fluorescence imaging of nuclei. Compounds (1 mM stock solutions) were serially diluted in half-log steps from the highest test concentration ([…]), and assayed over 10 concentrations with a maximum assay concentration of 0.1% DMSO. Automated fluorescence microscopy was carried out using a Molecular Devices ImageXpress Micro XL high-content imager, and images were collected with a 4× objective. 16-bit TIFF images were acquired and analyzed with MetaXpress 5.1.0.41 software.
(§2) Cell proliferation was measured by the fluorescence intensity of an incorporated nuclear dye. The output is referred to as the relative cell count, where the measured nuclear intensity is transformed to percent of control (POC) using the following formula: […]
(§3) Cellular response parameters were calculated using nonlinear regression to a sigmoidal single-site dose response model:
(§4) Where y is a response measured at concentration x, A and B are the lower and upper limits of the response, C is the concentration at the response midpoint (EC50), and D is the Hill Slope (Ref. 1).
(§5) GI50 is the concentration needed to reduce the observed growth by half (midway between the curve maximum and the time zero value). […] In rare instances, values <0 or >10 may be observed. […] Curve-fitting, calculations, and report generation was performed using a custom data reduction engine and MathIQ based software (AIM).

A101D = assay: OncoPanel cell proliferation assay, A101D; format: cell-based, human; settings: for Cell Count Activity Area: scale 0-10
Procedure: as §1, with “Cells were grown in RPMI 1640, 10% FBS, 2 mM L-alanyl-L-glutamine, 1 mM Na pyruvate, or a special medium. Cells” for “Cells”
as §2, §3, §4
(§6) EC50 is the test compound concentration at the curve inflection point or half the effective response (parameter C of the fitted curve solution). GI50 is the concentration needed to reduce the observed growth by half (midway between the curve maximum and the time zero value). “Cell Count Activity Area” is an estimate of the integrated area above the curve (Barretina, et al. The Cancer Cell Line Encyclopedia enables predictive modelling of anticancer drug sensitivity. Nature 483: 603-607). […] In rare instances, values <0 or >10 may be observed. […] Curve-fitting, calculations, and report generation was performed using a custom data reduction engine and MathIQ based software (AIM).

SNU-5 = assay: OncoPanel cell proliferation assay, SNU-5; format: cell-based, human
Procedure: as §1, §2, §3, §4, §5

NCIH446 = assay: OncoPanel cell proliferation assay, NCIH446; format: cell-based, human; settings: for Cell Count Activity Area: NCIH446, scale 0-10
Procedure: as §1, with “Cells were grown in RPMI 1640, 10% FBS, 2 mM L-alanyl-L-glutamine, 1 mM Na pyruvate, or a special medium. Cells” for “Cells”
as §2, §3, §4, §6

T24 = assay: OncoPanel cell proliferation assay, T24; format: cell-based, human; settings: for Cell Count Activity Area: T24, scale 0-10
Procedure: as §1, with “Cells were grown in RPMI 1640, 10% FBS, 2 mM L-alanyl-L-glutamine, 1 mM Na pyruvate, or a special medium. Cells” for “Cells”
as §2, §3, §4, §6

RKOE6 = assay: OncoPanel cell proliferation assay, RKOE6; settings: RKOE6, scale 0-10
Procedure: (§7) Cells were seeded into 384-well plates and incubated in a humidified atmosphere of 5% CO2 at 37° C. Compounds were added the day following cell seeding. At the same time, a time zero untreated cell plate was generated. After a 3-day incubation period, cells were fixed and stained to allow fluorescence imaging of nuclei. Compounds (1 mM stock solutions) were serially diluted in half-log steps from the highest test concentration (1 micromol), and assayed over 10 concentrations with a maximum assay concentration of 0.1% DMSO. Automated fluorescence microscopy was carried out using a Molecular Devices ImageXpress Micro XL high-content imager, and images were collected with a 4× objective. 16-bit TIFF images were acquired and analyzed with MetaXpress 5.1.0.41 software.

SHP-77 = assay: OncoPanel cell proliferation assay, SHP-77; settings: for Cell Count Activity Area: SHP-77, scale 0-10
Procedure: as §7

G-402 = assay: OncoPanel cell proliferation assay, G-402; format: cell-based, human; settings: G-402, scale 0-10
Procedure: as §1, with “Cells were grown in RPMI 1640, 10% FBS, 2 mM L-alanyl-L-glutamine, 1 mM Na pyruvate, or a special medium. Cells” for “Cells”
as §2, §3, §4, §6

SNU-C2B = assay: OncoPanel cell proliferation assay, SNU-C2B; format: cell-based, human; settings: for Cell Count Activity Area: scale 0-10
Procedure: as §1, with “Cells were grown in RPMI 1640, 10% FBS, 2 mM L-alanyl-L-glutamine, 1 mM Na pyruvate, or a special medium. Cells” for “Cells”
as §2, §3, §4, §6

A388 = assay: OncoPanel cell proliferation assay, A388; format: cell-based, human
Procedure: as §1, §2, §3, §4, §5

PC-3 = assay: OncoPanel cell proliferation assay, PC-3; settings: for Cell Count Activity Area: PC-3, scale 0-10
Procedure: as §7

CML-T1 = assay: OncoPanel cell proliferation assay, CML-T1; format: cell-based, human; settings: CML-T1, scale 0-10
Procedure: as §1, with “Cells were grown in RPMI 1640, 10% FBS, 2 mM L-alanyl-L-glutamine, 1 mM Na pyruvate, or a special medium. Cells” for “Cells”
as §2, §3, §4, §6

[1] = Homo sapiens, 72 h, 3-day incubation, read-out: Cell Count IC50

With CO[C@H]1C[C@@H]2CC[C@@H](C)[C@@](O)(O2)C(=O)C(=O)N2CCCC[C@H]2C(=O)O[C@H]([C@H](C)C[C@@H]2CC[C@@H](O)[C@H](OC)C2)CC(=O)[C@H](C)/C=C(\C)[C@@H](O)[C@@H](OC)C(=O)[C@H](C)C[C@H](C)/C=C/C=C/C=C/1C [Rapamycin, reference compound] the IC50 (SW684; Homo sapiens, 72 h, SW684, 3-day incubation, read-out: Cell Count IC50) was > 1 µM, the “Cell Count Activity Area” value (SW684; SW684, scale 0-10) was 2.81 and the IC50 (A101D; [1]) was > 1 µM. For the same compound, the “Cell Count Activity Area” value (A101D) was 2.92, the GI50 (SNU-5; Homo sapiens, 72 h, SNU-5, 3-day incubation, read-out: Cell Count GI50) was 0.024 µM and the IC50 (SNU-5; Homo sapiens, 72 h, SNU-5, 3-day incubation, read-out: Cell Count IC50) was > 1 µM. The EC50 (NCIH446; Homo sapiens, NCI-H446, 72 h, NCIH446, 3-day incubation, read-out: Cell Count EC50) was > 1 µM, the IC50 (NCIH446; Homo sapiens, NCI-H446, 72 h, NCIH446, 3-day incubation, read-out: Cell Count IC50) was > 1 µM and the “Cell Count Activity Area” value (NCIH446) was 1.69. The IC50 (T24; Homo sapiens, T-24, 72 h, T24, 3-day incubation, read-out: Cell Count IC50) was 0.0021 µM, the “Cell Count Activity Area” value (T24) was 4.39 and the “Cell Count Activity Area” value (RKOE6) was 4.61. For the same compound, the EC50 (SHP-77; Homo sapiens, SHP77, 72 h, read-out: Cell Count EC50) was > 1 µM, the GI50 (SHP-77; Homo sapiens, SHP77, 72 h, read-out: Cell Count GI50) was > 1 µM and the IC50 (SHP-77; Homo sapiens, SHP77, 72 h, read-out: Cell Count IC50) was > 1 µM. For the same compound, the “Cell Count Activity Area” value (SHP-77) was 1.13, the “Cell Count Activity Area” value (G-402) was 4.68 and the EC50 (SNU-C2B; Homo sapiens, 72 h, 3-day incubation, read-out: Cell Count EC50) was > 1 µM. For the same compound, the GI50 (SNU-C2B; Homo sapiens, 72 h, 3-day incubation, read-out: Cell Count GI50) was > 1 µM, the IC50 (SNU-C2B; [1]) was > 1 µM and the “Cell Count Activity Area” value (SNU-C2B) was 1.99. For the same compound, the EC50 (A388; Homo sapiens, 72 h, A388, 3-day incubation, read-out: Cell Count EC50) was > 1 µM, the GI50 (A388; Homo sapiens, 72 h, A388, 3-day incubation, read-out: Cell Count GI50) was > 1 µM and the IC50 (A388; Homo sapiens, 72 h, A388, 3-day incubation, read-out: Cell Count IC50) was > 1 µM. The EC50 (PC-3; Homo sapiens, PC-3, 72 h, read-out: Cell Count EC50) was 0.00023 µM, the IC50 (PC-3; Homo sapiens, PC-3, 72 h, read-out: Cell Count IC50) was > 1 µM and the “Cell Count Activity Area” value (PC-3) was 3.57. For the same compound, the “Cell Count Activity Area” value (CML-T1) was 4.56.

In the case of CN[C@@H]1C[C@H]2O[C@@](C)([C@@H]1OC)n1c3ccccc3c3c4c(c5c6ccccc6n2c5c31)C(=O)NC4 [Staurosporine, reference compound], the GI50 (SW684; Homo sapiens, 72 h, SW684, 3-day incubation, read-out: Cell Count GI50) is reported as 0.00095 µM, the “Cell Count Activity Area” value (A101D) is reported as 4.56 and the “Cell Count Activity Area” value (SNU-5; SNU-5, scale 0-10) is reported as 2.58. For the same compound, the “Cell Count Activity Area” value (NCIH446) was 2.81, the “Cell Count Activity Area” value (T24) was 5.96 and the “Cell Count Activity Area” value (RKOE6) was 3.96. For the same compound, the “Cell Count Activity Area” value (SHP-77) was 3.16, the “Cell Count Activity Area” value (G-402) was 5.93 and the “Cell Count Activity Area” value (SNU-C2B) was 3.80. For the same compound, the “Cell Count Activity Area” value (A388; A388, scale 0-10) was 4.99, the “Cell Count Activity Area” value (PC-3) was 4.67 and the “Cell Count Activity Area” value (CML-T1) was 4.13.
